The text below walks through data of article PMC12040169 (PLOS Biology, 2025).

The series in a line: in vitro. The settings on record: human, hela cells, % viability.
As a reminder, the viability is a read-out of living cells in per cent, often relative to untreated cells. For `COCCCn1c(=O)[nH]c2ncc(-c3ccco3)nc21` [CBK064449], the viability at 28.5 h, 10 µM stood at 99.2%.

Regarding `COc1cc(-c2cnc3[nH]c(=O)n([C@@H](CO)C(C)C)c3n2)cc(OC)c1OC` [CBK064471], the viability at 28.5 h, 10 µM amounted to 105%.

Regarding `CC(C)[C@H](CO)n1c(=O)[nH]c2ncc(-c3ccco3)nc21` [CBK064479], the viability at 28.5 h, 10 µM was determined as 86.7%.

As to `O=c1[nH]c2ncc(-c3ccncc3)nc2n1CC1CC1` [CBK064539], the viability at 28.5 h, 10 µM is 90%.

`CCCC/C=C/c1cnc2[nH]c(=O)n(CCCOC)c2n1` [CBK064540]: the viability at 28.5 h, 10 µM was 109%.

On to `C[C@@H](c1ccccc1)n1c(=O)[nH]c2ncc(-c3ccc(C(=O)NC4CCCC4)cc3)nc21` [CBK064542], for which the viability at 28.5 h, 10 µM was 91.2%.

Consider `CC(C)Cn1c(=O)[nH]c2ncc(-c3ccc(C(=O)NC4CCCC4)cc3)nc21` [CBK064551], for which the viability at 28.5 h, 10 µM is 108%.

Consider `CN(C)C(=O)c1cccc(-c2cnc3[nH]c(=O)n(Cc4ccc(Cl)cc4)c3n2)c1` [CBK064553], for which the viability at 28.5 h, 10 µM amounted to 97.5%.

Regarding `C[C@H](c1ccccc1)n1c(=O)[nH]c2ncc(-c3ccc(C(=O)N4CCN(C)CC4)cc3)nc21` [CBK064559], the viability at 28.5 h, 10 µM is 101%.

Regarding `O=c1[nH]c2ncc(-c3cccnc3)nc2n1Cc1ccc(Cl)cc1` [CBK064561], the viability at 28.5 h, 10 µM is 98.3%.

Regarding `O=c1[nH]c2ncc(-c3ccsc3)nc2n1C1CCCCC1` [CBK064574], the viability at 28.5 h, 10 µM stood at 92.6%.

For `CN(C)CCNC(=O)c1ccc(-c2cnc3[nH]c(=O)n(CC4CC4)c3n2)cc1` [CBK064578], the viability at 28.5 h, 10 µM is 94.6%.

In the case of `O=C(NC1CCCC1)c1ccc(-c2cnc3[nH]c(=O)n(C4CCCCC4)c3n2)cc1` [CBK064582], the viability at 28.5 h, 10 µM stood at 113%.

Turning to `COc1cccc(-c2cnc3[nH]c(=O)n(Cc4ccc(Cl)cc4)c3n2)c1` [CBK064596], the viability at 28.5 h, 10 µM was determined as 111%.

For the compound `COCCCn1c(=O)[nH]c2ncc(-c3cnc(OC)nc3)nc21` [CBK064618], the viability at 28.5 h, 10 µM was determined as 92%.

Regarding `COc1cc(-c2cnc3[nH]c(=O)n(CCc4ccncc4)c3n2)cc(OC)c1OC` [CBK064620], the viability at 28.5 h, 10 µM stood at 96.9%.

`COc1ccccc1-c1cnc2[nH]c(=O)n(Cc3ccc(F)c(Cl)c3)c2n1` [CBK064662]: the viability at 28.5 h, 10 µM came to 103%.

Take `CN(C)c1cccc(-c2cnc3[nH]c(=O)n(-c4ccc5[nH]ccc5c4)c3n2)c1` [CBK064682]: the viability at 28.5 h, 10 µM amounted to 103%.

With `COc1ccccc1-c1cnc2[nH]c(=O)n(CC(C)(C)CO)c2n1` [CBK064690], the viability at 28.5 h, 10 µM worked out at 90.2%.

Take `COc1ccccc1-c1cnc2[nH]c(=O)n([C@@H](C)c3ccccc3)c2n1` [CBK064717]: the viability at 28.5 h, 10 µM turned out to be 93.3%.

`CC(C)(CO)Cn1c(=O)[nH]c2ncc(-c3ccco3)nc21` [CBK064721]: the viability at 28.5 h, 10 µM turned out to be 98.8%.

Regarding `COc1cc(-c2cnc3[nH]c(=O)n(Cc4ccco4)c3n2)cc(OC)c1OC` [CBK064755], the viability at 28.5 h, 10 µM was found to be 96.3%.

Turning to `COc1ccc(-c2cnc3[nH]c(=O)n(CCN4CCOCC4)c3n2)cc1` [CBK064782], the viability at 28.5 h, 10 µM came out at 103%.

Turning to `CN1CCN(C(=O)c2ccc(-c3cnc4[nH]c(=O)n(CCN5CCOCC5)c4n3)cc2)CC1` [CBK064800], the viability at 28.5 h, 10 µM came to 114%.

As to `O=c1[nH]c2ncc(-c3cncc4ccccc34)nc2n1CCCO` [CBK064814], the viability at 28.5 h, 10 µM came to 96%.

For `O=C(NC1CCCC1)c1ccc(-c2cnc3[nH]c(=O)n(CCCN4CCOCC4)c3n2)cc1` [CBK064829], the viability at 28.5 h, 10 µM came to 102%.

On to `CC(C)[C@@H](CO)n1c(=O)[nH]c2ncc(-c3cccc4cccnc34)nc21` [CBK064848], for which the viability at 28.5 h, 10 µM amounted to 102%.

Consider `CC(=O)Nc1cccc(-c2cnc3[nH]c(=O)n(C4CC4)c3n2)c1` [CBK064859], for which the viability at 28.5 h, 10 µM is 103%.

Regarding `COc1ccc(-c2cnc3[nH]c(=O)n(C4CC4)c3n2)cc1` [CBK064907], the viability at 28.5 h, 10 µM came to 86.9%.

Turning to `COc1ncc(-c2cnc3[nH]c(=O)n(C4CC4)c3n2)cn1` [CBK064908], the viability at 28.5 h, 10 µM was 89.1%.

As to `COCCCn1c(=O)[nH]c2ncc(-c3cc(OC)c(OC)c(OC)c3)nc21` [CBK064937], the viability at 28.5 h, 10 µM was 91.8%.

Regarding `CC(C)[C@H](CO)n1c(=O)[nH]c2ncc(-c3cccc4ncccc34)nc21` [CBK064955], the viability at 28.5 h, 10 µM turned out to be 99.5%.

With `CCCC/C=C/c1cnc2[nH]c(=O)n(Cc3ccc(S(N)(=O)=O)cc3)c2n1` [CBK064956], the viability at 28.5 h, 10 µM was determined as 98.8%.

As to `CC(C)[C@@H](CO)n1c(=O)[nH]c2ncc(-c3cccc4ccccc34)nc21` [CBK064961], the viability at 28.5 h, 10 µM stood at 98.6%.

Take `CN(C)c1ccc(-c2cnc3[nH]c(=O)n(C4CCCC4)c3n2)cc1` [CBK064964]: the viability at 28.5 h, 10 µM worked out at 98%.

Consider `O=c1[nH]c2ncc(-c3cncc4ccccc34)nc2n1C1CCC(O)CC1` (centres unmarked) [CBK065013], for which the viability at 28.5 h, 10 µM was determined as 108%.

As for `CC(C)[C@@H](CO)n1c(=O)[nH]c2ncc(-c3ccco3)nc21` [CBK065018], the viability at 28.5 h, 10 µM came out at 106%.

As for `CC(C)[C@H](CO)n1c(=O)[nH]c2ncc(-c3ccc(OC(F)(F)F)cc3)nc21` [CBK065037], the viability at 28.5 h, 10 µM stood at 105%.

Consider `C[C@@H](c1ccccc1)n1c(=O)[nH]c2ncc(-c3cccc(/C=C/C(=O)O)c3)nc21` [CBK065040], for which the viability at 28.5 h, 10 µM came out at 106%.

For `CC(C)[C@@H](CO)n1c(=O)[nH]c2ncc(-c3cccc(/C=C/C(=O)O)c3)nc21` [CBK065043], the viability at 28.5 h, 10 µM was 88.6%.

For the compound `O=c1[nH]c2ncc(-c3ccsc3)nc2n1CCCO` [CBK065044], the viability at 28.5 h, 10 µM stood at 94.9%.

In the case of `CN(C)c1cccc(-c2cnc3[nH]c(=O)n(CCCO)c3n2)c1` [CBK065052], the viability at 28.5 h, 10 µM came out at 102%.

Regarding `COc1ncc(-c2cnc3[nH]c(=O)n(Cc4ccc(S(C)(=O)=O)cc4)c3n2)cn1` [CBK065053], the viability at 28.5 h, 10 µM was found to be 103%.

In the case of `CS(=O)(=O)c1ccc(Cn2c(=O)[nH]c3ncc(-c4cccc(/C=C/C(=O)O)c4)nc32)cc1` [CBK065059], the viability at 28.5 h, 10 µM stood at 97.7%.

Consider `O=c1[nH]c2ncc(-c3cccc4ncccc34)nc2n1CCCO` [CBK065060], for which the viability at 28.5 h, 10 µM is 104%.

Consider `O=c1[nH]c2ncc(-c3cccnc3)nc2n1CCN1CCOCC1` [CBK065070], for which the viability at 28.5 h, 10 µM stood at 103%.

For the compound `O=c1[nH]c2ncc(-c3cccc(CO)c3)nc2n1CC1CC1` [CBK065088], the viability at 28.5 h, 10 µM was 63.9%.

For `NC(=O)c1ccc(-c2cnc3[nH]c(=O)n(CCCN4CCOCC4)c3n2)cc1` [CBK065092], the viability at 28.5 h, 10 µM was 102%.

Regarding `COCCCn1c(=O)[nH]c2ncc(-c3cccc(CO)c3)nc21` [CBK065104], the viability at 28.5 h, 10 µM came to 99.4%.

For the compound `COCCCn1c(=O)[nH]c2ncc(-c3cccc(/C=C/C(=O)O)c3)nc21` [CBK065107], the viability at 28.5 h, 10 µM is 104%.

Turning to `COc1cc(-c2cncc(Nc3ccc4c(c3)OC(F)(F)C(F)(F)O4)n2)cc(OC)c1OC` [CBK065138], the viability at 28.5 h, 10 µM stood at 94.4%.

On to `CN1CCN(c2ccc(-c3cncc(N4CCN(c5ccncc5)CC4)n3)cn2)CC1` [CBK065144], for which the viability at 28.5 h, 10 µM turned out to be 92.9%.

Take `COc1ncc(-c2cncc(N3CCN(CCO)CC3)n2)c(OC)n1` [CBK065146]: the viability at 28.5 h, 10 µM stood at 84.8%.

In the case of `CCCC/C=C/c1cncc(Nc2cc(OC)c(OC)c(OC)c2)n1` [CBK065155], the viability at 28.5 h, 10 µM came out at 102%.

With `O=C(c1ccco1)N1CCN(c2cncc(-c3ccc4ccccc4c3)n2)CC1` [CBK065184], the viability at 28.5 h, 10 µM amounted to 89%.

In the case of `COc1cc(Nc2cncc(-c3cccnc3)n2)cc(OC)c1OC` [CBK065201], the viability at 28.5 h, 10 µM worked out at 93.7%.

Turning to `OCc1ccccc1-c1cncc(N2CCN(c3ccncc3)CC2)n1` [CBK065208], the viability at 28.5 h, 10 µM was 113%.

Turning to `CC(=O)Nc1cccc(-c2cncc(NCc3cccc(Cl)c3)n2)c1` [CBK065236], the viability at 28.5 h, 10 µM came out at 97.2%.

For `c1csc(CNc2cncc(-c3ccncc3)n2)c1` [CBK065238], the viability at 28.5 h, 10 µM is 97.3%.

Consider `CC(C)(CO)CNc1cncc(-c2cccc(C(F)(F)F)c2)n1` [CBK065248], for which the viability at 28.5 h, 10 µM stood at 102%.

As for `COc1cc(-c2cncc(NCc3ccncc3)n2)cc(OC)c1OC` [CBK065263], the viability at 28.5 h, 10 µM was 98.9%.

As for `COc1ncc(-c2cncc(N[C@H](C)c3ccccc3)n2)c(OC)n1` [CBK065267], the viability at 28.5 h, 10 µM is 92.4%.

Turning to `CN(C)CCN(C)c1cncc(-c2cccc(N)c2)n1` [CBK065270], the viability at 28.5 h, 10 µM was 87.3%.

As to `C[C@@H](Nc1cncc(-c2cccc(N)c2)n1)c1ccccc1` [CBK065273], the viability at 28.5 h, 10 µM came to 87.1%.

For `COc1cc(-c2cncc(NCc3cccc(Cl)c3)n2)cc(OC)c1OC` [CBK065284], the viability at 28.5 h, 10 µM was determined as 115%.

Consider `COc1ncc(-c2cncc(NCCc3ccccn3)n2)c(OC)n1` [CBK065287], for which the viability at 28.5 h, 10 µM was 97.7%.

For `Fc1cccc(-c2cncc(NCCc3c[nH]c4ccccc34)n2)c1` [CBK065288], the viability at 28.5 h, 10 µM is 94.7%.

Turning to `CC(=O)Nc1cccc(-c2cncc(NCc3ccco3)n2)c1` [CBK065290], the viability at 28.5 h, 10 µM was found to be 100%.

Turning to `CN1CCN(c2cncc(-c3ccccc3CO)n2)CC1` [CBK065302], the viability at 28.5 h, 10 µM turned out to be 91.8%.

Take `CCCC/C=C/c1cncc(N[C@H](CO)C(C)C)n1` [CBK065314]: the viability at 28.5 h, 10 µM worked out at 97%.

Take `OCc1ccccc1-c1cncc(NCc2ccc3c(c2)OCO3)n1` [CBK065318]: the viability at 28.5 h, 10 µM amounted to 89.2%.

As for `N#Cc1cccc(Nc2cncc(-c3cccc(N)c3)n2)c1` [CBK065319], the viability at 28.5 h, 10 µM came out at 89.1%.

`COc1ccc(C(C)C)cc1-c1cncc(NCCc2ccccn2)n1` [CBK065325]: the viability at 28.5 h, 10 µM is 94.9%.

For the compound `OCc1ccccc1-c1cncc(NCc2cccs2)n1` [CBK065345], the viability at 28.5 h, 10 µM turned out to be 104%.

As for `COc1ccc(C(C)C)cc1-c1cncc(NCc2ccc3c(c2)OCO3)n1` [CBK065348], the viability at 28.5 h, 10 µM turned out to be 95.2%.

As to `COc1ccc(C(C)C)cc1-c1cncc(N[C@@H](CO)C(C)C)n1` [CBK065356], the viability at 28.5 h, 10 µM came to 102%.

Regarding `O=C(O)/C=C/c1cccc(-c2cncc(NCCc3ccncc3)n2)c1` [CBK065358], the viability at 28.5 h, 10 µM was found to be 99.5%.
